Data: patent US7223580B2, “N-acetylglucosamine transferase, nucleic acid encoding the same and use thereof in diagnosing cancer and/or tumor” (National Institute of Advanced Industrial Science and …, priority 2002, dated 2007)

Target: T1, β3GnT-7 (Homo sapiens, UniProt Q8NFL0)
T1 construct: made in house; host or cells: Sf21 insect cells (baculovirus, Bac-to-Bac); purified from culture supernatant on anti-M1 (anti-FLAG) resin
T1 sequence (Q8NFL0 75-401): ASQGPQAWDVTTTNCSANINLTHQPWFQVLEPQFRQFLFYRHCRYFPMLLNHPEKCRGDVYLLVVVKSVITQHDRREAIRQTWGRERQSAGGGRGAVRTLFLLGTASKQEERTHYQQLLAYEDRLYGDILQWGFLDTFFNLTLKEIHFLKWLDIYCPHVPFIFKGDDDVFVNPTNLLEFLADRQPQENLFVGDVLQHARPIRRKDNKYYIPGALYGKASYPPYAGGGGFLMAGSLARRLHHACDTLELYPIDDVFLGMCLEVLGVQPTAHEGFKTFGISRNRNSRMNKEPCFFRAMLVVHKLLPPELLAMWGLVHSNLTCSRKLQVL
Assay: Search of acceptor substrate of β3Gn-T7 (UDP-[14C]GlcNAc transfer, TLC radioactivity)
Type: biochemical
Conditions: acceptor substrate 10 nmol, donor UDP-GlcNAc 480 μM, 37° C. for 5 hours, pH7.2
Excerpt: Using the following reaction systems, the acceptor substrate was searched. As the “acceptor substrate” in the reaction solution described below, each of the following was used and whether each of them functioned as the acceptor or not was investigated: pNp-α-Glc, pNp-β-Glc, pNp-α-GlcNAc, pNp-β-GlcNAc, pNp-α-Gal, pNp-β-Gal, pNp-α-GalNAc, Bz-α-GalNAc, pNp-α-Xyl, pNp-β-Xyl, pNp-α-Fuc, Bz-α-Man, Bz-α-ManNAc, LacCer, GalCer typel and Bz-β-lactoside (all of them are from SIGMA) and Galβ1-4GlcNAc-α-pNp (TRONTO RESEARCH CHEMICAL).
The reaction solution (the numbers in the parentheses indicate the final concentrations) contained acceptor substrate (10 nmol), sodium cacodylate buffer (pH7.2) (50 mM), Triton CF-54 (trademark) (0.4%), MnCl2 (10 mM), UDP-GlcNAC (480 μM) and UDP-[^14C]GlcNAC (175 nCi) and CDP-colline (5 mM), to which 10 μl of the β3Gn-T7 enzyme solution and H2O were added to attain a final volume of 25 μl.
The reaction mixture was allowed to react at 37° C. for 5 hours, and after completion of the reaction, 200 μl of 0.1 M KCl was added, followed by light centrifugation and collection of the supernatant. […] After developing the mixture up to 5 mm from the top end of the TLC plate, the plate was dried and the intensity of the radioactivity taken in the product was measured using Bio Image Analyzer FLA3000 (FUJI PHOTO FILM).

whether it functioned as the acceptor (transfer of GlcNAc by β3GnT-7) | SMILES
activity to transfer GlcNAc | OC[C@H]1O[C@@H](O[C@H]2[C@H](O)[C@@H](O)[C@H](OCc3ccccc3)O[C@@H]2CO)[C@H](O)[C@@H](O)[C@H]1O [Bz-β-lactoside]
activity to transfer GlcNAc | CC(=O)N[C@H]1[C@@H](Oc2ccc([N+](=O)[O-])cc2)O[C@H](CO)[C@@H](O[C@@H]2O[C@H](CO)[C@H](O)[C@H](O)[C@H]2O)[C@@H]1O [Galβ1-4Glc(NAc)-α-pNp, Galβ1-4GlcNAc-α-pNp]
